Measurements: US11357749B2, “Methods for treating neutropenia” (Enzychem Lifesciences Corporation, priority 2014, dated 2022)

How the values were obtained:
C3 [1] = assay: C3 expression (RT-PCR) in IL-4/TNF-α treated HMC-1 cells; format: cell-based, human; conditions: HMC-1 cells treated with IL-4 and TNF-α; PLAG 0.1 and 1 μg/mL
Method: A blood cell line, HMC-1 (human mast cell, American Type Culture Collection, ATCC, Rockville, Md.) is incubated and maintained at 37° C. under 5% CO2 humid conditions. The medium is IMDM (Life Technologies, Karlsruhe, Germany) containing 10% Fetal Calf Serum (FCS, HyClone, Logan, Utah), 2 mM […], 100 μg/ml penicillin, 100 μg/ml streptomycin (Life Technologies). The cultured HMC-1 cells (1×10^6 cell/ml) are pre-treated with 0.1 and 1 μg/mL concentration of PLAG, followed by treating with IL-4 (5 ng) and/or TNF-α (10 ng) to induce cellular activities.
The expressed C3 and its mRNA level change are observed by using RT-PCR (Reverse Transcriptase Polymerase Chain Reaction). The RT-PCR is carried out as follows: the total RNA is separated by the standard protocol and cDNA is synthesized using AccuScript High Fidelity 1st Strand cDNA Synthesis Kit (Stratagene) by the manufacturer's instructions. Two-step RT-PCR reaction is conducted using Oligo-dT primer and reverse transcriptase, pair of primer and Taq polymerase (Takara, Shiga, Japan). […] The product of PCR is separated using 1.5% agarose gel, dyed with ethidium bromide (EtBr), and visualized with Gel Doc 2000 UV trans-illuminator (Bio-Rad Laboratories, Hercules, Calif., USA), and the experimental data is analyzed using Quantity One software (Bio-Rad Laboratories).

C3 [2] = assay: C3 mRNA (RT-PCR) in HepG2 cells; format: cell-based, human; conditions: HepG2, 10 and 100 microgram/ml of S6I, compared with PLAG
Method: A liver cell line, HepG2 (American Type Culture Collection, ATCC, Rockville, Md.), is incubated and maintained at 37° C., 5% CO2 humid atmosphere in DMEM medium. When HepG2 cells, which are known to produce complement in culture, are treated with PLAG, the activity of complement is reduced effectively, as confirmed by RT-PCR of mRNA. In the RT-PCR, 5×10^5 number of HepG2 cells/ml are distributed into 12 well plates and induced C3 for 12 hours with 10% FCS. Then PLAG is added and further cultured for 2 hours. Cells are harvested and mRNA is isolated and RT-PCR is carried out with specific primer of C3; GAPDH is used as an internal control.

[3] = system: white blood cells and neutrophils; assay: Cyclophosphamide-induced neutropenia in mice, G-CSF with or without PLAG; format: in vivo; conditions: mice, cyclophosphamide 100 mpk i.p. ten days; G-CSF 0.25 mpk i.p.; PLAG 25 mpk p.o.
Description: Mice receive cyclophosphamide (100 mpk, i.p.) for a period of ten days, with or without G-CSF (0.25 mpk, i.p.) or G-CSF (0.25 mpk, i.p.) plus PLAG (25 mpk, p.o.): […]

Row | Molecule | expression of C3 (C3 [1]) | C3 expression (RT-PCR) (C3 [2]) | Neutrophils [3] [k/μl] | White blood cells (WBCs) [3] [k/μl]
1 | NC(=O)c1cnc(NCCc2ccc(O)c(Cl)c2)nc1NCc1ccccc1 [S6I, reference compound] | suppresses expression of C3 | comparable | – | –
2 | G-CSL: Granulocyte-colony stimulating factor, glycoprotein that stimulates hematopoietic precursor cells; 0.25 mpk i.p. in mice (protein, UniProt P09920 31-208, looked up) Granulocyte …: VPLVTVSALPPSLPLPRSFLLKSLEQVRKIQASGSVLLEQLCATYKLCHPEELVLLGHSLGIPKASLSGCSSQALQQTQCLSQLHSGLCLYQGLLQALSGISPALAPTLDLLQLDVANFATTIWQQMENLGVAPTVQPTQSAMPAFTSAFQRRAGGVLAISYLQGFLETARLALHHLA | – | – | 4.36 | 5.37
